Experiment [1] concerns DU145 or PC3 cells. Briefly: release of HMGB1 and cyclophilin A from tumor cells, Western blotting. As to conditions: marker of necrosis. The experiment is classed as cell-based, human. (In general: Immunoblotting shows a protein as a band on a membrane.)
Experiment [2] deals with prostate cancer cell types (LNCaP, C4-2B, PC3, DU145). Kind of experiment: cell death of prostate cancer cells, CellTox reactivity. As to conditions: PC3 / prostate cancer cells, 0-50 μM. The experiment is classed as cell-based, human.
Method: Cell death and apoptosis. […] The various cell-permeable MFF peptides were examined for induction of cytotoxicity using a CellTOX Green cytotoxicity assay kit (Promega). Briefly, 10^4 normal or tumor cells in 100 μl complete medium were plated on white opaque 96-well plate. […] Lysis Solution in the assay kit was used as cytotoxicity control (100% cell death) and treatment with PBS was used as a control for 100% cell viability.
For experiment [3], the target named is T1, human recombinant VDAC (Homo sapiens, UniProt P21796).
T1 construct: The cleaved, full length hVDAC1 was collected from the HS-HQ flow through; hexahistidine-SUMO (N, cleaved yes); made in house; host or cells: E. coli ScarabXpress T7 lac
Kind of experiment: isothermal titration calorimetry (ITC). Particulars: 20° C. It counts as binding. Here is the method: Expression and purification of human VDAC1. A full length human VDAC1 cDNA (hVDAC1) was cloned into pET28b vector containing an N-terminal hexahistidine-SUMO fusion tag, with a flexible linker cleavable by tobacco etch virus (TEV) protease. The hVDAC1 was expressed in E. coli ScarabXpress T7 lac competent cells (Scarab genomics) for 16 h at 16° C. using 1 mM IPTG (Denville Scientific Inc.). The cells were harvested by centrifugation and lysed on ice via sonication in buffer containing 25 mM Tris-HCl (pH 7.5), 1 M Urea, 1 M KCl, 5% glycerol, 1 mM Benzamidine and 1 mM PMSF (Ni Buffer A). The lysate was centrifuged at 18,000 rpm for 20 min at 4° C. The cell pellet was first washed extensively in Ni Buffer A with 1% Triton X-100 and then solubilized in buffer containing 20 mM Tris-HCl (pH 7.9), 500 mM NaCl, 4 M guanidine-HCl and 10% glycerol for 45 min with gentle stirring. The supernatant was collected following centrifugation at 20,000 rpm for 10 min at 4° C. The protein was then purified over nickel-nitrilotriacetic acid (Ni-NTA—Qiagen) column and buffer-exchanged to 25 mM Tris-HCl (pH 7.5), 500 mM KCl, 5% glycerol, 1 mM benzamidine and 1 mM PMSF (Ni buffer C) with 2% n-Octylglucoside (Research Products International). The protein was then eluted with 300 mM imidazole and treated overnight with TEV at 4° C. to cleave the His-SUMO tag. […]
(ITC needs no label: the signal is the heat of the interaction.)

In experiment [4] the test system is isolated tumor (PC3) mitochondria. Briefly: high-throughput assay for depolarization of isolated tumor (PC3) mitochondria, TMRE staining. It counts as biochemical, human. As to conditions: MFF peptides 20 μM. Here is the method:
Analysis of mitochondrial membrane potential. […] In some experiments, PC3 cells were treated with cell-permeable scrambled peptide or cell-permeable MFF #8-11 peptide, washed three times in PBS, pH 7.4, and analyzed on a FACSCalibur flow cytometer, with the TMRE signal as FL1. Intact cells were gated in the FSC/SSC plot to exclude small debris. Cells treated with 20 μM FCCP 10 min prior to TMRE staining were used as a negative control. The resulting FL1 data were plotted on a histogram. For quantification of membrane potential of purified mitochondria, mitochondria isolated from PC3 cells (50 μg) were suspended in 400 μl of SB buffer (0.2 M sucrose, 10 mM Tris-MOPS, pH 7.4, 5 mM succinate, 1 mM sodium phosphate, 10 μM EGTA-Tris, 2 μM rotenone). […] After two washes with SB buffer, mitochondria were recovered by centrifugation at 6000×g for 10 min, suspended in 100 μl of SB buffer and mitochondrial membrane potential was quantified on a florescence microplate reader (Ex/Em=535/595 nm, Beckman Coulter). Samples treated with 2 mM CaCl2 were used as control for the lowest membrane potential (fully depolarized state).

The subject of experiment [5] is mitochondria of normal BPH-1 cells. Kind of experiment: depolarization of isolated mitochondria of normal BPH-1 cells, TMRE staining. It counts as biochemical, human. As to conditions: peptide #8 10-30 μM.
The target of experiment [6] is T2, MFF-PTP complex (MFF and VDAC or HK-I) (Homo sapiens, UniProt P21796).
T2 construct: VDAC and HK-I are endogenous
Kind of experiment: competition of MFF-PTP complex in isolated cell extracts, Flag-MFF1 immunoprecipitation and Western blotting. It counts as biochemical. As to conditions: added to isolated cell extracts. Here is the method:
Immunoprecipitation (IP). Cells were harvested and lysed with IP buffer (50 mM Tris-HCl, pH 7.5, 150 mM NaCl, 1 mM EDTA) containing 1% CHAPS, EDTA-free Protease Inhibitor Cocktail (Sigma-Aldrich) and Phosphatase Inhibitor Cocktail PhosSTOP (Roche). After sonication, lysates were centrifuged at 15,000×g for 30 min, and cell extracts were incubated with anti-Flag-conjugated beads (Sigma-Aldrich). The precipitates were washed five times, separated by SDS-polyacrylamide gel electrophoresis and processed for Western blotting together with samples representing unbound material and supernatant.
Immunoprecipitation. Cells were harvested and lysed with PLD assay buffer (50 mM HEPES-NaOH, pH 7.3, 3 mM EGTA, 3 mM CaCl2, 3 mM MgCl2, 80 mM KCl) containing 1% CHAPS, EDTA-free Protease Inhibitor Cocktail (Sigma-Aldrich) and Phosphatase Inhibitor Cocktail PhosSTOP (Roche). After sonication, lysates were centrifuged at 15,000×g for 30 min, and cell extracts were incubated with anti-Flag-conjugated beads (Sigma-Aldrich). The precipitates were washed five times, separated by sodium dodecyl sulfate-polyacrylamide gel electrophoresis (SDS-PAGE) and processed for Western blotting.

Experiment [7] has as its system NSCLC A549 and H460 or breast adenocarcinoma MDA-231 and MCF-7 cells. Kind of experiment: NSCLC and breast adenocarcinoma cell lines, TMRE flow cytometry and CellTox cell death. It counts as cell-based, human. Particulars: A549, H460, MDA-231, MCF-7 cells, 10-25 μM, TMRE. Background: In flow cytometry, cells or beads pass a laser one at a time.
Experiment [8] relates to PC3 cells. Kind of experiment: cytochrome c release from tumor cells, Western blotting. The experiment is classed as cell-based, human. Particulars: supernatants vs mitochondrial extracts.

pKd: −log10 of the molar value. Peptide text beside a SMILES is read from it.

T1 sequence (P21796 whole entry): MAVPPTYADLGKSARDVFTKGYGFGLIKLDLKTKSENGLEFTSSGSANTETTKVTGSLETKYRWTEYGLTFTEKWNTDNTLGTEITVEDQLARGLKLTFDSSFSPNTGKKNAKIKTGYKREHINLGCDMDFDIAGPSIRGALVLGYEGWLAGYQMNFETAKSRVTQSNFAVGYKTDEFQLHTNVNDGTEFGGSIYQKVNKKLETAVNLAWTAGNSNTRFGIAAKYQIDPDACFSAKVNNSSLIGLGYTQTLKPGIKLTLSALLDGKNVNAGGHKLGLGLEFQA
T2 sequence (P21796 2-283 limits assumed, one chain of several): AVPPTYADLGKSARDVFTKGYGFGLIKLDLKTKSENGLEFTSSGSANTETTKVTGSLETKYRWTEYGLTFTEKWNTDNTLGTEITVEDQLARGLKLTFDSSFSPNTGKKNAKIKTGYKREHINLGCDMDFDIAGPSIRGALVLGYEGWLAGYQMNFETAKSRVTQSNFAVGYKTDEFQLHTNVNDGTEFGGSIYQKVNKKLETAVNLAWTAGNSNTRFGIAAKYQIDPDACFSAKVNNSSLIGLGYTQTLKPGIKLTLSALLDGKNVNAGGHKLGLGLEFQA

As to “MFF peptide #8-11 containing the double mutation R225D/R236D (DD): cell-permeable MFF peptide #8-11 mutant containing the double mutation R225D/R236D (DD) (RQIKIWFQNRRMKSADGILSLIQSSTDRAYQQIL)”, the “HMGB1 release from tumor cells” value was “had no effect on HMGB1 release” in experiment [1] and “did not induce HMGB1 release” in experiment [1] (listed as MFF-DD mutant peptide #8-11). Further, the “tumor cell death / viability” value is listed as “did not affect tumor cell viability” in experiment [2] and “entirely lost the ability to induce tumor (PC3) cell death” in experiment [2] (listed as DD).
For `CC[C@H](C)[C@H](NC(=O)CNC(=O)[C@H](CCCNC(=N)N)NC(=O)[C@H](C)NC(=O)[C@@H](N)CO)C(=O)N[C@@H](CC(C)C)C(=O)N[C@@H](CO)C(=O)N[C@@H](CC(C)C)C(=O)N[C@H](C(=O)N[C@@H](CCC(N)=O)C(=O)N[C@@H](CO)C(=O)N[C@@H](CO)C(=O)N[C@H](C(=O)N[C@@H](CCCNC(=N)N)C(=O)N[C@@H](CCCNC(=N)N)C(=O)N[C@@H](C)C(=O)N[C@@H](Cc1ccc(O)cc1)C(=O)N[C@@H](CCC(N)=O)C(=O)N[C@@H](CCC(N)=O)C(=O)N[C@H](C(=O)N[C@@H](CC(C)C)C(=O)O)[C@@H](C)CC)[C@@H](C)O)[C@@H](C)CC` [MFF peptide #8-11] (H-SARGILSLIQSSTRRAYQQIL-OH), the pKd (as a rule, the negative decadic logarithm of the Kd, by convention in mol/L) in experiment [3] was about 4.92.
In the case of “DGANLSSARGILSLIQSSTRRAYQQILDVL (MFF-Derived; Peptide #8) [MFF peptide #8]”, the “depolarization of isolated tumor (PC3) mitochondria” value (shortened to “depolarization of isolated tumor”) in experiment [4] is reported as “depolarized tumor mitochondria”. For the same compound, in experiment [5], the “depolarization of mitochondria of normal BPH-1 cells” value is given as “did not depolarize”. In experiment [6], the “disruption of the interaction between MFF and VDAC or HK-I” value is “disrupting the interaction between MFF and VDAC or HK-I”.
“SARGILSLIQSSTRRAYQQILDVL (MFF Deletion; Peptide 8 #2) [peptide #8 variant #2]”: the “depolarization of isolated tumor” value in experiment [4] is recorded as “depolarized isolated tumor mitochondria”.
The same measure, in the same setting: the result for “DGANLSSARGILSLIQSSTRRAYQQIL (MFF Deletion; Peptide 8 #6) [peptide #8 variant #6]” reads “depolarized isolated tumor mitochondria”.
In the case of “SSQLRYLARSQRITIQLIAGS (MFF Scramble; Peptide 8 #11) [scrambled sequence]”, in experiment [3], the “binding to human recombinant VDAC by ITC” value is “ineffective”. In addition, the mitochondrial membrane potential entry in experiment [7] is “not”.
Take “NLSSARGILSLIQSSTRRAYQQILDVL (MFF Deletion; Peptide 8 #1) [peptide #8 variant #1]”: the “depolarization of isolated tumor” value in experiment [4] was “depolarized isolated tumor mitochondria”.
Regarding “AEMAEISRIQYEMEYTEGISQRMRVP (MFF-Derived; Peptide #1) [MFF #1]”, in experiment [8], the “cytochrome c release from tumor cells” value is “had no effect”.

Source of the values: patent US12662518B2, “Engineered peptide and peptide mimetic compositions and methods” (The Wistar Institute of Anatomy and Biology, priority 2019, dated 2026).
